ChEMBL document CHEMBL4219042, “Advances in macrocyclic peptide-based antibiotics” (2018)

Experiments:
Type in all cases: functional
Pseudomonas aeruginosa [1] = test: Antibacterial activity against multidrug-resistant Pseudomonas aeruginosa 5585 after 16 to 20 hrs by agar dilution method
Escherichia coli [2] = test: Antibacterial activity against multidrug-resistant Escherichia coli 5364 after 16 to 20 hrs by agar dilution method
Pseudomonas aeruginosa [3] = test: Antibacterial activity against multidrug-resistant Pseudomonas aeruginosa 5298 after 16 to 20 hrs by agar dilution method
Escherichia coli [4] = test: Antibacterial activity against multidrug-resistant Escherichia coli 5353 after 16 to 20 hrs by agar dilution method
Escherichia coli [5] = test: Antibacterial activity against multidrug-resistant Escherichia coli 5539 after 16 to 20 hrs by agar dilution method
Pseudomonas aeruginosa [6] = test: Antibacterial activity against multidrug-resistant Pseudomonas aeruginosa 5215 after 16 to 20 hrs by agar dilution method
Pseudomonas aeruginosa [7] = test: Antibacterial activity against multidrug-resistant Pseudomonas aeruginosa 5510 after 16 to 20 hrs by agar dilution method
Pseudomonas aeruginosa [8] = test: Antibacterial activity against multidrug-resistant Pseudomonas aeruginosa 5313 after 16 to 20 hrs by agar dilution method
Escherichia coli [9] = test: Antibacterial activity against multidrug-resistant Escherichia coli 5237 after 16 to 20 hrs by agar dilution method

Measured: MIC

CCC(C)CCC(O)CC(=O)N[C@H](CCN)C(=O)N[C@H]1CCNC(=O)[C@H](CC(C)C)NC(=O)[C@H](CCN)NC(=O)[C@H](CCN)NC(=O)[C@@H](Cc2ccccc2)NC(=O)[C@H](CC(C)C)NC(=O)[C@H](CCN)NC1 (some centres undefined)
2 to 4 µg/mL: Pseudomonas aeruginosa [1] | Escherichia coli [2] | Pseudomonas aeruginosa [3] | Escherichia coli [4] | Escherichia coli [5] | Pseudomonas aeruginosa [6] | Pseudomonas aeruginosa [7] | Pseudomonas aeruginosa [8] | Escherichia coli [9]
